Patent publication US10723723B2, “Substituted bicycle heterocyclic derivatives useful as ROMK channel inhibitors” (BRISTOL-MYERS SQUIBB COMPANY, priority 2016, dated 2020)

Tests used:
Assay type in all cases: cell-based
hROMK (human Kir1.1) = hROMK (human Kir1.1) (Homo sapiens (Human), UniProt P48048); assay: Thallium Flux Assay (FluxOR, CHO T-Rex hROMK stable cell line); conditions: CHO T-Rex hROMK cells, 10-point concentration response curve; read-out: Human ROMK TH Flux IC50
hROMK = hROMK (Homo sapiens (Human), UniProt P48048); assay: ROMK Manual Patch Clamp Assay; conditions: whole-cell manual patch clamp, hROMK current; read-out: ROMK EP IC50
Sequence of hROMK (P48048 whole entry): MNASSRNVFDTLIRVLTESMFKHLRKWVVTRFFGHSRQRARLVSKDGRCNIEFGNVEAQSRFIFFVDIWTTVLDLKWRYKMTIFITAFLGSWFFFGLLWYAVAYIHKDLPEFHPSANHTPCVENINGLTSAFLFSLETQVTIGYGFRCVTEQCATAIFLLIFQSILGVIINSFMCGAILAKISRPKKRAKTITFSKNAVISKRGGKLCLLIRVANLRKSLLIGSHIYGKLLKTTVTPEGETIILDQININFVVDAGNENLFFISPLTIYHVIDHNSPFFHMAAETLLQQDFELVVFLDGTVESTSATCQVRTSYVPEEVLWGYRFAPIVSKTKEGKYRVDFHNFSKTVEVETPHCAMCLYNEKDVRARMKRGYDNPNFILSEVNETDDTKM
Protocol: Cell culture conditions: Cells were maintained in conditions similar to those for Thallium flux assay. hROMK channel expression was induced by adding 0.6 μg/ml of Doxycycline 16-24 hrs prior to the experiments. On the day of experiment, the cells were dissociated using Versene, resuspended in growth media and plated onto coverslips 15 minutes prior to use.
The cells were voltage clamped at −75 mV in whole-cell configuration using an Axopatch 200b or Multiclamp 700b (Molecular Devices) amplifier controlled by pClamp Software (Molecular Devices). The current was recorded by applying a voltage step to −120 mV every 10 seconds. […] At the end of the experiment, the cells were perfused with bath solution containing 2 mM Ba^2+ to isolate the contribution of hROMK current.
Data analysis: Raw current values (5 traces each for control, different compound concentration and Ba^2+ treatment groups) were exported from Clampfit into Microsoft Excel where the current remaining after application of Ba^2+ was subtracted from raw current to obtain hROMK specific current.

hERG channels = hERG channels (Homo sapiens (Human), UniProt Q12809); assay: hERG Manual Patch Clamp Assay (HEK 293 cells stably expressing hERG channels); conditions: human, HEK 293 cells stably expressing hERG channels, pH 7.4
Sequence of hERG channels (Q12809 whole entry): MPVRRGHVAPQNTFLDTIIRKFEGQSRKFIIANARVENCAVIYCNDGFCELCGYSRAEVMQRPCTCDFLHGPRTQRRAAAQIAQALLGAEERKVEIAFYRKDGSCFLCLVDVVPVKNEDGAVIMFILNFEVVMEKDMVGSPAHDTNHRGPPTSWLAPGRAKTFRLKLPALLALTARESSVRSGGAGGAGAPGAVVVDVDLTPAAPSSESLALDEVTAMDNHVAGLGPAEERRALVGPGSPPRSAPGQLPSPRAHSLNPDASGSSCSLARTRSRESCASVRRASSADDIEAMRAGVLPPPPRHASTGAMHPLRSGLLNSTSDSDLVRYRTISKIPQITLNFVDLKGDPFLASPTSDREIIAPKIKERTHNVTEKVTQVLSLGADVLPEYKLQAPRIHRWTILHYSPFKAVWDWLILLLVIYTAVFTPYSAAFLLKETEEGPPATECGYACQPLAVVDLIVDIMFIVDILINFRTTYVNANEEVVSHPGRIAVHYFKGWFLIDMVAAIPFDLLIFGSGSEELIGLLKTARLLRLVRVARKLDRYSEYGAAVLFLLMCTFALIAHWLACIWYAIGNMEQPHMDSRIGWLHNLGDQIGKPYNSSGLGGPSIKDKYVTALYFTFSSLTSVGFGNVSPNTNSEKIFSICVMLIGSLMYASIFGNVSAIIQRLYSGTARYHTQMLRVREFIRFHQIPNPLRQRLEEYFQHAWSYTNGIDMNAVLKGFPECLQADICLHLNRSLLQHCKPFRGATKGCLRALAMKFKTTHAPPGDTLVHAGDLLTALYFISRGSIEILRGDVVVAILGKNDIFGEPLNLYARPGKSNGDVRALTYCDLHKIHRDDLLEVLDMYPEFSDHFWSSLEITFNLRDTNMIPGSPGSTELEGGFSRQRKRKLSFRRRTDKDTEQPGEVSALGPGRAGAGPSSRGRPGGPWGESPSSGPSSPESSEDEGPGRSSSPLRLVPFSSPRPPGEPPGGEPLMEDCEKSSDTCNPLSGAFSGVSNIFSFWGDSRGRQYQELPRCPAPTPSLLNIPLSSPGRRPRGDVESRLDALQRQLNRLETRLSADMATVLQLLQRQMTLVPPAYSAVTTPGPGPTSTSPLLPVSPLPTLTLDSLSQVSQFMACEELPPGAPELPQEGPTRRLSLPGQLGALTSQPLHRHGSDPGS
Protocol: hERG electrophysiology assay: The experimental compounds were assessed for hERG activity on HEK 293 cells stably expressing hERG channels using patch clamp technique. Coverslips plated with hERG expressing cells were placed in the experimental chamber and were perfused with a solution composed of (in mM): 140 NaCl, 4 KCl, 1.8 CaCl2), 1 MgCl2, 10 Glucose, 10 HEPES (pH 7.4, NaOH) at room temperature. Borosilicate patch pipettes had tip resistances of 2-4 Mohms when filled with an internal solution containing: 130 KCl, 1 MgCl2, 1 CaCl2), 10 EGTA, 10 HEPES, 5 ATP-K2 (pH 7.2, KOH). The cells were clamped at −80 mV in whole cell configuration using an Axopatch 200B (Axon instruments, Union City, Calif.) patch clamp amplifier controlled by pClamp (Axon instruments) software. Upon formation of a gigaseal, the following voltage protocol was repeatedly (0.05 Hz) applied to record tail currents: depolarization step from −80 mV to +20 mV for 2 seconds followed by a hyperpolarization step to −65 mV (3 seconds) to elicit tail currents. Compounds were applied after stabilization of tail current. First, tail currents were recorded in presence of extracellular solution alone (control) and subsequently, in extracellular solution containing increasing compound concentrations. Each compound concentration was applied for 2-5 minutes. The percentage inhibition at each concentration was calculated as reduction in peak tail current with respect to the peak tail current recorded in the presence of control solution. Data analysis was performed in a custom made template. The percent inhibitions at different concentrations were plotted to obtain a concentration response curve, which was subsequently fitted with a four parameter equation to calculate hERG IC50 value.
A lower hERG % Inhibition value indicates less inhibition of the hERG current

Sequence of hROMK (human Kir1.1) (P48048 whole entry): as the sequence (P48048 whole entry) above

| Structure (SMILES) | IC50 (hROMK (human Kir1.1)) [nM] | IC50 (hROMK) [nM] | inhibition at 1 µM (hERG channels) [%] |
| --- | --- | --- | --- |
| Cc1cn(-c2ccc(CNC[C@H](O)c3ccc4c(c3C)COC4=O)cn2)cn1 [Example 108, (R)-5-(1-hydroxy-2-(((6-(4-methyl-1H-imidazol-1-yl)pyridin-3-yl)methyl)amino)ethyl)-4-methylisobenzofuran-1(3H)-one] | 35 | 19 | 7.3 |
| Cc1c([C@@H](O)CNCc2ccc(-n3cc(C#N)cn3)nc2)ccc2c1COC2=O [Example 177] | 0.57 | 0.15 | 98 |
| Cc1c([C@@H](O)CNCc2cnc(-n3c(C)nnc3C)nc2)ccc2c1COC2=O [Example 47, (R)-5-(2-(((2-(3,5-dimethyl-4H-1,2,4-triazol-4-yl)pyrimidin-5-yl)methyl)amino)-1-hydroxyethyl)-4-methylisobenzofuran-1(3H)-one] | 100 | 420 | 9.7 |
| Cc1c(C(O)CNCc2ccc3c(ccn3-c3ccc4c(c3)COC4=O)c2)ccc2c1COC2=O (stereo not drawn) [Example 8-I, 5-(1-hydroxy-2-(((1-(1-oxo-1,3-dihydroisobenzofuran-5-yl)-1H-indol-5-yl)methyl)amino)ethyl)-4-methylisobenzofuran-1(3H)-one] | 290 | 42 | 83 |
| Cc1nc(-n2cc(CNC[C@H](O)c3ccc4c(c3C)COC4=O)cn2)nc(C)c1C#N [Example 87, (R)-2-(4-(((2-hydroxy-2-(4-methyl-1-oxo-1,3-dihydroisobenzofuran-5-yl)ethyl)amino)methyl)-1H-pyrazol-1-yl)-4,6-dimethylpyrimidine-5-carbonitrile] | 40 | 71 | 7.5 |
| COc1cc(-c2cc(CNC[C@H](O)c3ccc4c(c3C)COC4=O)on2)ncc1C#N [Example 137, (R)-6-(5-(((2-hydroxy-2-(4-methyl-1-oxo-1,3-dihydroisobenzofuran-5-yl)ethyl)amino)methyl)isoxazol-3-yl)-4-methoxynicotinonitrile] | 35 | 26 | 7.6 |
| Cc1c([C@@H](O)CNCc2cnc(-n3cc(C#N)c(C(F)F)n3)nc2)ccc2c1COC2=O [Example 115, (R)-3-(difluoromethyl)-1-(5-(((2-hydroxy-2-(4-methyl-1-oxo-1,3-dihydroisobenzofuran-5-yl)ethyl)amino)methyl)pyrimidin-2-yl)-1H-pyrazole-4-carbonitrile] | 20 | 20 | 12 |
| COc1cc(-n2cc(CNC(C)C(O)c3ccc4c(c3C)COC4=O)nn2)ncc1C#N (single isomer, unassigned) [Example 91-I, 6-(4-(((1-hydroxy-1-(4-methyl-1-oxo-1,3-dihydroisobenzofuran-5-yl)propan-2-yl)amino)methyl)-1H-1,2,3-triazol-1-yl)-4-methoxynicotinonitrile] | 21 | 11 | 19 |
| Cc1nn(-c2ncc(CNC[C@H](O)c3ccc4c(c3C)COC4=O)cn2)cc1C#N [Example 105, (R)-1-(5-(((2-hydroxy-2-(4-methyl-1-oxo-1,3-dihydroisobenzofuran-5-yl)ethyl)amino)methyl)pyrimidin-2-yl)-3-methyl-1H-pyrazole-4-carbonitrile] | 11 | 7.8 | 3.4 |
| Cc1nc(-n2cc(CNC[C@H](O)c3ccc4c(c3C)COC4=O)cn2)ncc1C#N (single isomer, unassigned) [Example 50] | 45 | 49 | 8.5 |
| Cc1cc(-n2cc(CNC[C@H](O)c3ccc4c(c3C)COC4=O)nn2)nc(C)c1C#N [Example 69, (R)-6-(4-(((2-hydroxy-2-(4-methyl-1-oxo-1,3-dihydroisobenzofuran-5-yl)ethyl)amino)methyl)-1H-1,2,3-triazol-1-yl)-2,4-dimethylnicotinonitrile] | 14 | 6.1 | 15 |
| COc1cc(-n2cnc(CNC[C@H](O)c3ccc4c(c3C)COC4=O)c2)ncc1C#N [Example 51, (R)-6-(4-(((2-hydroxy-2-(4-methyl-1-oxo-1,3-dihydroisobenzofuran-5-yl)ethyl)amino)methyl)-1H-imidazol-1-yl)-4-methoxynicotinonitrile] | 73 | 38 | 3.4 |
| Cc1nn(-c2ccc(CNC[C@H](O)c3ccc4c(c3C)COC4=O)cn2)cc1C#N [Example 178, (R)-1-(5-(((2-hydroxy-2-(4-methyl-1-oxo-1,3-dihydroisobenzofuran-5-yl)ethyl)amino)methyl)pyridin-2-yl)-3-methyl-1H-pyrazole-4-carbonitrile] | 3.6 | 2.1 | 36 |
| Cc1c([C@@H](O)CNCc2cn(-c3ccc4oc(=O)n(C)c4c3)nn2)ccc2c1COC2=O [Example 139, (R)-5-(4-(((2-hydroxy-2-(4-methyl-1-oxo-1,3-dihydroisobenzofuran-5-yl)ethyl)amino)methyl)-1H-1,2,3-triazol-1-yl)-3-methylbenzo[d]oxazol-2(3H)-one] | 55 | 24 | 5.9 |
| Cc1cn(-c2ncc(CNC[C@H](O)c3ccc4c(c3C)COC4=O)cn2)cn1 [Example 106, (R)-5-(1-hydroxy-2-(((2-(4-methyl-1H-imidazol-1-yl)pyrimidin-5-yl)methyl)amino)ethyl)-4-methylisobenzofuran-1(3H)one] | 26 | 9.2 | 2.4 |
| Cc1cc(-c2cc(CNC[C@H](O)c3ccc4c(c3C)COC4=O)on2)ncc1C#N [Example 140, (R)-6-(5-(((2-hydroxy-2-(4-methyl-1-oxo-1,3-dihydroisobenzofuran-5-yl)ethyl)amino)methyl)isoxazol-3-yl)-4-methylnicotinonitrile] | 56 | 16 | 8.6 |
| COc1nc(-n2cc(CNC[C@H](O)c3ccc4c(c3C)COC4=O)nn2)cc(C)c1C#N [Example 67, (R)-6-(4-(((2-hydroxy-2-(4-methyl-1-oxo-1,3-dihydroisobenzofuran-5-yl)ethyl)amino)methyl)-1H-1,2,3-triazol-1-yl)-2-methoxy-4-methylnicotinonitrile] | 20 | 9.3 | 11 |
| Cc1c(C(O)CN(C)Cc2ccc(-c3ccc4oc(=O)n(C)c4c3)nc2)ccc2c1COC2=O (stereo not drawn) [Example 1-I, 5-(5-(((2-hydroxy-2-(4-methyl-1-oxo-1,3-dihydroisobenzofuran-5-yl)ethyl)(methyl)amino)methyl)pyridin-2-yl)-3-methylbenzo[d]oxazol-2(3H)-one] | 170 | 19 | 8.7 |
| Cc1cc(-n2cc(CNC[C@H](NS(C)(=O)=O)c3ccc4c(c3C)COC4=O)cn2)ncc1C#N [Example 61, (R)-N-(2-(((1-(5-cyano-4-methylpyridin-2-yl)-1H-pyrazol-4-yl)methyl)amino)-1-(4-methyl-1-oxo-1,3-dihydroisobenzofuran-5-yl)ethyl)methanesulfonamide] | 27 | 27 | 8.4 |
| COc1cc(-n2cc(CNC[C@H](O)c3ccc4c(c3C)COC4=O)nn2)ncc1C#N [Example 138, (R)-6-(4-(((2-hydroxy-2-(4-methyl-1-oxo-1,3-dihydroisobenzofuran-5-yl)ethyl)amino)methyl)-1H-1,2,3-triazol-1-yl)-4-methoxynicotinonitrile] | 43 | 18 | 10 |
| COc1cc(-c2ccc(CNC[C@H](O)c3ccc4c(c3C)COC4=O)cn2)ncc1C#N [Example 130, (R)-5′-(((2-hydroxy-2-(4-methyl-1-oxo-1,3-dihydroisobenzofuran-5-yl)ethyl)amino)methyl)-4-methoxy-[2,2′-bipyridine]-5-carbonitrile] | 8.3 | 1.1 | 32 |
